For data set [1], the system named is KB cells. The settings on record: read-out: Cytotoxicity IC50, KB (natural product comparator), other cells 'Not available'; cited from earlier work.
The test system of data set [2] is Jurkat cells. The settings on record: comparator natural product, other cells 'Not available', read-out: Cytotoxicity IC50, Jurkat (natural product comparator); cited from earlier work.
In data set [3] the test system is L5178Y cells. The settings on record: read-out: Cytotoxicity IC50, L5178Y (natural product comparator), other cells 'Not available'; cited from earlier work.
For data set [4], the system named is Jurkat cells. Nature of the data set: Cytotoxicity assay (CellTiter-Glo) in Jurkat cells. The format is cell-based. The settings on record: for Cytotoxicity in Jurkat screening (in words): cytotoxicity screening in Jurkat cell lines, FIG. 20. As for the experimental part:
(§1) Jurkat and L5178Y cells were cultured in RPMI 1640 (ATCC), HL60 cells were cultured in Iscove's Modified Dulbecco's Medium (IMDM, ATCC), KB and MCF7 cells were cultured in Eagles Minimum Essential Medium (EMEM, ATCC), and SKOV3 cells in McCoy's 5a Medium (ATCC) supplemented with 10% Heat Inactivated Fetal Bovine Serum (FBS), and Penicillin and Streptomycin (P/S) at 37° C. in a 5% CO2 incubator.
(§2) Proliferating cells were seeded at approximately 20×10^3 cells per 50 μL per well into 96 well plates using a MultiFlo FX multi-mode dispenser (BioTek). On reaching ≈40% cell density, the cells were then incubated with varying concentrations (195 nM to 200 μM final) of test samples using a Biomek FXP Automated Workstation (Beckman Coulter). 48 hours post drug incubation, cell viability was determined using Promega's CellTiter-Glo Luminescent Cell Viability Assay according to the manufacturer's protocol on a plate reader (EnVision from PerkinElmer) in Luminescence mode. In each experiment, each unique condition (i.e., different sample type and concentration) was tested in triplicate. […] IC50 values for each treatment were calculated using Graph-Pad Prism 8.0 Software.

Data set [5] in a line: Cytotoxicity assay (CellTiter-Glo) in KB cells. The format is cell-based. The settings on record: human, 48 hours post drug incubation, cell viability by CellTiter-Glo, triplicate, read-out: Chromenone cytotoxicity IC50, KB. As for the experimental part: as §1
(§3) Proliferating cells were seeded at approximately 20×10^3 cells per 50 μL per well into 96 well plates using a MultiFlo FX multi-mode dispenser (BioTek). On reaching ≈40% cell density, the cells were then incubated with varying concentrations (195 nM to 200 μM final) of test samples using a Biomek FXP Automated Workstation (Beckman Coulter). 48 hours post drug incubation, cell viability was determined using Promega's CellTiter-Glo Luminescent Cell Viability Assay according to the manufacturer's protocol on a plate reader (EnVision from PerkinElmer) in Luminescence mode. In each experiment, each unique condition (i.e., different sample type and concentration) was tested in triplicate. The percentage of test sample induced toxicity was calculated with respect to DMSO treated cells and graphed to give dose response curves. IC50 values for each treatment were calculated using Graph-Pad Prism 8.0 Software.
Background: ATP-based viability assays read luminescence as a measure of living cells.

Data set [6] deals with HL60 cells. The data set can be described thus: Cytotoxicity assay (CellTiter-Glo) in HL60 cells. The format is cell-based. The settings on record: 48 hours post drug incubation, cell viability by CellTiter-Glo, triplicate. As for the experimental part:
as §1, §2

The nature of data set [7]: Cytotoxicity assay (CellTiter-Glo) in HL60 cells. The format is cell-based. The settings on record: human, 48 hours post drug incubation, cell viability by CellTiter-Glo, triplicate, read-out: Chromenone cytotoxicity IC50, HL60. As for the experimental part: as §1, §2
Data set [8] concerns L5178Y cells. The data set can be described thus: Cytotoxicity assay (CellTiter-Glo) in L5178Y cells. The format is cell-based. The settings on record: 48 hours post drug incubation, cell viability by CellTiter-Glo, triplicate. As for the experimental part: as §1, §2
A short description of data set [9]: Cytotoxicity assay (CellTiter-Glo) in L5178Y cells. Type of data set: cell-based. The settings on record: mouse, 48 hours post drug incubation, cell viability by CellTiter-Glo, triplicate, read-out: Chromenone cytotoxicity IC50, L5178Y. As for the experimental part:
as §1, §2

Data set [10] can be described thus: Cytotoxicity assay (CellTiter-Glo) in Jurkat cells. The format is cell-based. The settings on record: human; Jurkat cells, 48 hours post drug incubation, cell viability by CellTiter-Glo, triplicate; read-out: Chromenone cytotoxicity IC50, Jurkat. As for the experimental part: as §1, §2
The test system of data set [11] is KB cells. The data set can be described thus: Cytotoxicity assay (CellTiter-Glo) in KB cells. Type of data set: cell-based. The settings on record: 48 hours post drug incubation, cell viability by CellTiter-Glo, triplicate, read-out: Chromenone cytotoxicity IC50, KB. As for the experimental part: as §1, §3
The test system of data set [12] is HL60 cells. The settings on record: comparator natural product, other cells 'Not available', read-out: Cytotoxicity IC50, HL60 (natural product comparator); cited from earlier work.

Like-named read-outs stand apart in the source and are kept apart here.

Regarding Phomoxanthone A, the IC50 (usually the point on the concentration scale where inhibition reaches its midpoint) in the data set with KB cells [1] is 990 nM; in the data set on Jurkat cells [2], 500 nM; with L5178Y cells [3] it was 0.3 µM.

Regarding `COC(=O)C(C)(C)c1cc(=O)c2c(OC)c(-c3ccc4oc(C(C)(C)C(=O)OC)cc(=O)c4c3OC)ccc2o1` [Compound 35c, Dimethyl 2,2′-(5,5′-Dimethoxy-4,4′-dioxo-4H,4′H-[6,6′-bichromene]-2,2′-diyl)bis(2-methylpropanoate)], in the data set on Jurkat cells [4], the “Cytotoxicity in Jurkat screening (in words)” value (from here on “Cytotoxicity … (in words)”) is given as “highest levels of cytotoxicity”. In addition, the IC50 at 48 h in data set [5] turned out to be 41 ± 1.1 µM.

On to `COC(=O)C(C)(C)c1cc(=O)c2c(OC)ccc(-c3ccc(OC)c4c(=O)cc(C(C)(C)C(=O)OC)oc34)c2o1` [Compound 39c, Dimethyl 2,2′-(5,5′-Dimethoxy-4,4′-dioxo-4H,4′H-[8,8′-bichromene]-2,2′-diyl)bis(2-methylpropanoate)], for which the “Cytotoxicity … (in words)” value in the data set with Jurkat cells [4] is “highest levels of cytotoxicity”. Besides, the “Chromenone cytotoxicity IC50, HL60” value in the data set with HL60 cells [6] is reported as “low micromolar range”. Further, in data set [7], the IC50 at 48 h was found to be 24 µM. The “Chromenone cytotoxicity IC50, L5178Y” value in the data set on L5178Y cells [8] is on record as “low micromolar range”.

On to Phomoxanthone B, for which the IC50 with KB cells [1] is 4100 nM.

For `COC(=O)C(C)(C)c1cc(=O)c2c(O)ccc(-c3ccc(O)c4c(=O)cc(C(C)(C)C(=O)OC)oc34)c2o1` [Compound 28c, Dimethyl 2,2′-(5,5′-Dihydroxy-4,4′-dioxo-4H,4′H-[8,8′-bichromene]-2,2′-diyl)bis(2-methylpropanoate)], in the data set on Jurkat cells [4], the “Cytotoxicity … (in words)” value is recorded as “highest levels of cytotoxicity”. Moreover, the “Chromenone cytotoxicity IC50, HL60” value in the data set with HL60 cells [6] was “low micromolar range”. Moreover, the “Chromenone cytotoxicity IC50, L5178Y” value with L5178Y cells [8] was “low micromolar range”. The IC50 at 48 h in data set [9] is 23 µM; in data set [5] it was more than 50 µM.

As for Dicerandrol C, in the data set with L5178Y cells [3], the 50% inhibitory concentration (IC50) is 10 µM.

For `COc1ccc(-c2ccc(OC)c3c(=O)c(C(C)=O)c([C@@H](OC(C)=O)C(C)C)oc23)c2oc([C@@H](OC(C)=O)C(C)C)c(C(C)=O)c(=O)c12` [Compound 48c], the IC50 at 48 h in [10], in data set [7] and in data set [5] was more than 50 µM in each case.

Regarding “3-Acetyl-5-hydroxy-2-methyl-4H-1-benzopyran-4-one Dimer [Compound 43]”, the IC50 is 39 ± 1.1 µM with Jurkat cells [4] (Jurkat cells, 48 hours post drug incubation, cell viability by CellTiter-Glo, triplicate, read-out: Chromenone cytotoxicity IC50, Jurkat); more than 50 µM with HL60 cells [6] (read-out: Chromenone cytotoxicity IC50, HL60); more than 50 µM with L5178Y cells [8] (read-out: Chromenone cytotoxicity IC50, L5178Y); more than 50 µM with KB cells [11].

On to `COc1ccc(-c2ccc(OC)c3c(=O)c(C(C)=O)c(C)oc23)c2oc(C)c(C(C)=O)c(=O)c12` [Compound 42, 3,3′-Diacetyl-5,5′-dimethoxy-2,2′-dimethyl-4H,4′H-[8,8′-bichromene]-4,4′-dione], for which the IC50 at 48 h in [10], in data set [9] and in [5] was more than 50 µM each time.

Turning to Versixanthone F, in the data set on HL60 cells [12], the IC50 is 1000 nM.

Take `O=c1cc(C2CCCO2)oc2c(-c3ccc(O)c4c(=O)cc(C5CCCO5)oc34)ccc(O)c12` (stereo not shown) [Compound 28e, 5,5′-Dihydroxy-2,2′-bis(tetrahydrofuran-2-yl)-4H,4′H-[8,8′-bichromene]-4,4′-dione]: the “Cytotoxicity … (in words)” value in the data set with Jurkat cells [4] is “highest levels of cytotoxicity”. In addition, the half-inhibitory concentration (IC50) at 48 h in data set [7], in data set [9] and in [5] was more than 50 µM throughout.

The values above are taken from patent US12649725B2 (Worcester Polytechnic Institute, priority 2020, dated 2026).
